Columns and labels:
[1] = Lymph and plasma pharmacokinetics of orlistat in acute pancreatitis rats; format: in vivo, rat; settings: AP rats relative to healthy animals
Excerpt: FIG. 4 illustrates lymph and plasma pharmacokinetics of orlistat in lymph diverted or lymph intact sham or acute pancreatitis (AP) rats intestinally administered a blank long chain fatty acid (LC-FA), orlistat LC-FA (LC-FA+O), or orlistat lipid free formulation (LFF+O). Dose-normalised lymph concentration of total orlistat (open and closed ring forms) over time (Panel A), cumulative lymphatic transport of total orlistat (open and closed ring forms) over time (Panel B), gut-lymph concentrations of triglyceride (TG) (Panel C), cumulative TG mass transport in gut-lymph (Panel D), dose-normalised plasma concentrations of total orlistat (open and closed ring forms) (Panel E), and lymph to plasma concentration ratios of orlistat (Panel F) over time. […]
In the previous study it was determined in healthy rats that orlistat administration in a long chain fatty acid (LC-FA) formulation promotes lymphatic drug transport when compared to administration in a lipid free formulation (LFF). […] Blood pressure and heart rate were also determined. […]
After initiation of dosing of the formulations, lymph was collected continuously for the duration of the experiment (i.e. up to 4 h post initiation of formulation dosing) into pre-weighed 1.5 ml tubes that were kept in an ice bath. Lymph collection tubes were changed every hour and lymph flow was determined gravimetrically. […]

[2] = format: in vivo; settings: intestinal and IV groups; below the limit of quantitation
Protocol: Systemic availability was determined in lymph-intact anaesthetised rats with cannulas inserted into the carotid artery and duodenum for blood collection and formulation infusion, respectively. To enable the calculation of absolute bioavailability an additional group was administered orlistat intravenously via a jugular vein cannula, and blood samples collected from a carotid artery cannula over time.
To enable determination of systemic availability following intestinal dosing of selected formulations (i.e. the 40 mg oleic acid and olive oil formulations containing 8 mg/kg orlistat) a separate group of lymph-intact animals (i.e. non-lymph cannulated) were cannulated at the duodenum and carotid artery to enable formulation administration and blood collection, respectively. After surgery the rats were hydrated via intraduodenal infusion of 2.8 ml/h normal saline for at least 30 min, followed by intraduodenal infusion of the formulations at 2.8 ml/h for 2 h. […]
For the plasma pharmacokinetic studies, the absolute bioavailability following intestinal delivery of orlistat was calculated from:
Where AUC0-8h intestinally administered and IV administered are the area under the plasma concentration time curves from time 0 to 8 h after intestinal and IV administration, respectively. Plasma AUCs were calculated using the linear trapezoidal method.

[3] = cited from earlier work
[4] = healthy volunteers, oral, standard capsule formulations

In the case of `CCCCCCCCCCC[C@@H](C[C@@H]1OC(=O)[C@H]1CCCCCC)OC(=O)[C@H](CC(C)C)NC=O` [orlistat], the “Gut-lymph uptake of orlistat in animals with AP” value [1] is listed as “attenuated relative to healthy animals”, the “Plasma concentration of closed ring form of orlistat” value [2] is listed as less than 0.05 µg/mL and the “Dose recovered in the faeces” value [3, 4] is listed as “more than 97%”. For the same compound, the “Dose recovered in the faeces in a non-metabolised form” value [3, 4] was 83.1% and the “Absorption and bioavailability of orlistat” value ([3]; oral administration in standard formulations, fed or fasted state) was less than 1 % dose.
